Test results published in PMC12203311, “Design, synthesis, in silico and in vitro evaluation of pyrrole–indole hybrids as dual tubulin and aromatase inhibitors with potent anticancer activities” (RSC Advances, 2025).

How the values were obtained:
K-562 = experiment: NCI60 five-dose screen; assay type: cell-based; conditions: Homo sapiens, K562, K-562, leukemia
MOLT-4 = experiment: NCI60 five-dose screen; assay type: cell-based; conditions: Homo sapiens, MOLT-4, leukemia
A549/ATCC = experiment: NCI60 five-dose screen; assay type: cell-based; conditions: Homo sapiens, NSC lung cancer
EKVX = experiment: NCI60 five-dose screen; assay type: cell-based; conditions: Homo sapiens, NSC lung cancer
NCI-H226 = experiment: NCI60 five-dose screen; assay type: cell-based; conditions: Homo sapiens, NCI-H226, NSC lung cancer
NCI-H322M = experiment: NCI60 five-dose screen; assay type: cell-based; conditions: Homo sapiens, NSC lung cancer
NCI-H460 = experiment: NCI60 five-dose screen; assay type: cell-based; conditions: Homo sapiens, NCI-H460, NSC lung cancer
NCI-H522 = experiment: NCI60 five-dose screen; assay type: cell-based; conditions: Homo sapiens, NCI-H522, NSC lung cancer
HCT-15 = experiment: NCI60 five-dose screen; assay type: cell-based; conditions: Homo sapiens, HCT-15, colon cancer
KM12 = experiment: NCI60 five-dose screen; assay type: cell-based; conditions: Homo sapiens, KM12, colon cancer
SW-620 = experiment: NCI60 five-dose screen; assay type: cell-based; conditions: Homo sapiens, SW-620, colon cancer
SF-539 = experiment: NCI60 five-dose screen; assay type: cell-based; conditions: Homo sapiens, SF-539, CNS cancer
SNB-19 = experiment: NCI60 five-dose screen; assay type: cell-based; conditions: Homo sapiens, SNB-19, CNS cancer
MALME-3M = experiment: NCI60 five-dose screen; assay type: cell-based; conditions: Homo sapiens, melanoma
M14 = experiment: NCI60 five-dose screen; assay type: cell-based; conditions: Homo sapiens, M14, melanoma
MDA-MB-435 = experiment: NCI60 five-dose screen; assay type: cell-based, human; conditions: Homo sapiens
UACC-257 = experiment: NCI60 five-dose screen; assay type: cell-based; conditions: Homo sapiens, UACC-257, melanoma
OVCAR-4 = experiment: NCI60 five-dose screen; assay type: cell-based; conditions: Homo sapiens, OVCAR-4, ovarian cancer
OVCAR-8 = experiment: NCI60 five-dose screen; assay type: cell-based; conditions: Homo sapiens, OVCAR-8, ovarian cancer
NCI/ADR-RES = experiment: NCI60 five-dose screen; assay type: cell-based, human; conditions: Homo sapiens, ovarian cancer
SK-OV-3 = experiment: NCI60 five-dose screen; assay type: cell-based; conditions: Homo sapiens, SK-OV-3, ovarian cancer
RXF 393 = experiment: NCI60 five-dose screen; assay type: cell-based; conditions: Homo sapiens, RXF 393, renal cancer
DU-145 = experiment: NCI60 five-dose screen; assay type: cell-based; conditions: Homo sapiens, DU-145, prostate cancer
MCF7 = experiment: NCI60 five-dose screen; assay type: cell-based; conditions: Homo sapiens, MCF7, breast cancer
MDA-MB-231/ATCC = experiment: NCI60 five-dose screen; assay type: cell-based; conditions: Homo sapiens, breast cancer
HS 578T = experiment: NCI60 five-dose screen; assay type: cell-based; conditions: Homo sapiens, breast cancer
Human CYP19 (aromatase) = target: T1, Human CYP19 (aromatase) (Homo sapiens, UniProt P11511); experiment: Aromatase inhibition assay (DBF fluorometric substrate); assay type: biochemical; conditions: active defined as IC50 < 12.5 µM
T1 construct: purchased GENTEST, Woburn, MA 456260; host or cells: baculovirus/insect cells
T1 sequence (P11511 1-503): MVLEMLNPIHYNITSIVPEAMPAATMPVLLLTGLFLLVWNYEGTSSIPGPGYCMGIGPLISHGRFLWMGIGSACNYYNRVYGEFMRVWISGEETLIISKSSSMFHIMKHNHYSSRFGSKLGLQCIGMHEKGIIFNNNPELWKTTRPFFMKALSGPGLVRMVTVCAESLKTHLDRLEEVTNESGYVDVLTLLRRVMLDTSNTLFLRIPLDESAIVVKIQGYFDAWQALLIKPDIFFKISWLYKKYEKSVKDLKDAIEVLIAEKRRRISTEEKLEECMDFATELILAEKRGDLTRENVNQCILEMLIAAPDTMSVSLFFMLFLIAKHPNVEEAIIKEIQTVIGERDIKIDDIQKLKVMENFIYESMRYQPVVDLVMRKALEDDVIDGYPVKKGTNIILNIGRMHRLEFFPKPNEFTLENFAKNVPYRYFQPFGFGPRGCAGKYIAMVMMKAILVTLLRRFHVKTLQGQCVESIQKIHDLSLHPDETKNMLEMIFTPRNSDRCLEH
Procedure, shortened: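 Insect-cell-expressed human CYP19 Supersomes with oxidoreductase turned over DBF for 30 min at 37 °C after a 10 min 37 °C pre-incubation with cofactor. NaOH quench; product measured by fluorescence, excitation 490 nm, emission 530 nm.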

[1] = read-out: LC50 (the source's name)

**Q.** What does the source list for `O=C(N/N=C/c1[nH]ccc1Cl)c1[nH]c2ccc(Br)cc2c1-c1ccccc1` [Derivative 3g, (E)-5-Bromo-N′-((3-chloro-1H-pyrrol-2-yl)methylene)-3-phenyl-1H-indole-2-carbohydrazide]?
**A.** GI50 (K-562): 0.413 µM; CC50 (K-562; [1]): > 100 µM; GI50 (MOLT-4): 1.71 µM; CC50 (MOLT-4; [1]): > 100 µM; GI50 (A549/ATCC): 0.838 µM; CC50 (A549/ATCC; [1]): 53.4 µM; GI50 (EKVX): 2.66 µM; CC50 (EKVX; [1]): 38.1 µM; GI50 (NCI-H226): 1.44 µM; CC50 (NCI-H226; [1]): 32.1 µM; GI50 (NCI-H322M): 3.14 µM; CC50 (NCI-H322M; [1]): 48.8 µM; GI50 (NCI-H460): 0.448 µM; CC50 (NCI-H460; [1]): 34.3 µM; GI50 (NCI-H522): 0.233 µM; CC50 (NCI-H522; [1]): 20.4 µM; GI50 (HCT-15): 0.465 µM; CC50 (HCT-15; [1]): 34.3 µM; GI50 (KM12): 0.488 µM; CC50 (KM12; [1]): 34.6 µM; GI50 (SW-620): 0.499 µM; CC50 (SW-620; [1]): 50.2 µM; GI50 (SF-539): 0.378 µM; CC50 (SF-539; [1]): 18.5 µM; GI50 (SNB-19): 1.06 µM; CC50 (SNB-19; [1]): 35.4 µM; GI50 (MALME-3M): 0.596 µM; CC50 (MALME-3M; [1]): 48.4 µM; GI50 (M14): 0.689 µM; CC50 (M14; [1]): 45.4 µM; CC50 (MDA-MB-435; MDA-MB-435, MDA-MB-435, melanoma, read-out: LC50 (the source's name)): 25.5 µM; GI50 (MDA-MB-435; MDA-MB-435, melanoma): 0.222 µM; GI50 (UACC-257): 0.738 µM; CC50 (UACC-257; [1]): 52 µM; GI50 (OVCAR-4): 3.09 µM; CC50 (OVCAR-4; [1]): 43.5 µM; GI50 (OVCAR-8): 0.481 µM; CC50 (OVCAR-8; [1]): 27.7 µM; GI50 (NCI/ADR-RES): 0.219 µM; CC50 (NCI/ADR-RES; [1]): 10.5 µM; GI50 (SK-OV-3): 11.6 µM; CC50 (SK-OV-3; [1]): 64.1 µM; GI50 (RXF 393): 0.346 µM; CC50 (RXF 393; [1]): 42.1 µM; GI50 (DU-145): 1.58 µM; CC50 (DU-145; [1]): 33.1 µM; GI50 (MCF7): 0.376 µM; CC50 (MCF7; [1]): 42.2 µM; GI50 (MDA-MB-231/ATCC): 2.07 µM; CC50 (MDA-MB-231/ATCC; [1]): 28.2 µM; GI50 (HS 578T): 0.59 µM; CC50 (HS 578T; [1]): > 100 µM; IC50 (Human CYP19 (aromatase)): 2.6 ± 0.5 µM
